Assay results as given in patent US11401303B2, “Synthetic peptide BRAP and application in preparation of anti-inflammatory drug for COVID-19 thereof” (TAIAN CITY QIHANG BIOTECHNOLOGY CO., priority 2020, dated 2022).
Ends that are not written are not given here.

How the values were obtained:
[1] = Limit test on intravenous injection at 2000 mg/kg BW dose level; format: in vivo, Konmin mouse
Description: I. Test Animal (Subject): Konmin Mouse: Healthy, Adult, Male, Weight≤20 g, and n=5 pcs
III. Administration Route and Dose: 2000 mg/kg BW was Injected Via a Tail Vein
Administration capacity: the maximum injection capacity of the mice tail vein was 0.5 ml/once, slow injection
Dose and mode of administration: 40 mg/1.5 ml working solution was administered for 3 times within 9 h.
1) a test substance (synthetic peptide brap) having a dose of 2000 mg/kg was injected to the first Konmin mouse via tail vein;
2) whether of causing toxic responses (initial symptom, starting time, namely, time period after administration, severity and duration) was observed and recorded;
3) if the animal died, the response before being at death's door and the occurrence time of death were recorded.

[2] = tested on: BK-induced pulmonary microvascular leakage; test: BK-induced pulmonary microvascular leakage in guinea pigs (Evans blue in lung tissue); format: in vivo, guinea pig; conditions: intranasal 50 μL/side/day for 3 days
Description: Male guinea pigs weighing 400 g±5% were randomly divided into 6 groups, 6 per group.
1. normal control group: an equal volume of normal saline was injected intravenously on the lateral foot vein, for 3 days;
2. model group: an equal volume of normal saline was injected intravenously on the lateral foot vein, for 3 days;
3. positive control group: 1.25 mg/3 ml/kg BW dexamethasone was injected intravenously on the lateral foot vein, for 3 days;
4. high-dose synthetic peptide brap group: bilateral nasal cavities of the guinea pig were injected the synthetic peptide brap having a concentration of 3.0 mM/L by a micro-sampling gun with 50 μL/side/day for 3 days; […]
2. […] The solution was centrifuged for 5 min at 1500 rpm/min; supernatant was taken to measure the absorbance with a wavelength of 620 nm.
3. Preparation of an EB standard curve: 0.1 mL 0.1% EB solution was taken accurately and added 0.9 mL normal saline to be prepared into 1 mL 0.01% EB standard solution; 0.1 mL EB standard solution was taken and added formamide to 2 mL with a final concentration of 5 mg/L; then the solution was diluted by formamide to 4, 2, 1, and 0.5 mg/L. An absorbancy OD value was measured at a wavelength of 620 nm; OD value was denoted y-coordinate; EB concentration was denoted by x-coordinate; then a standard curve of OD value-EB concentration was drawn, as shown in FIG. 7A.

IL-6 mRNA = test: IL6 mRNA expression in lung tissues of LPS-induced mice by qPCR; format: in vivo, Balb/C mice
Description: 1.1 Lung tissue sample: a fresh lung tissue sample from each group of mice constructed in example 9 was taken and quick-frozen by liquid nitrogen as quickly as possible, and kept at […].
2. Extraction of total RNA (a total RNA extraction kit via a paramagnetic particle method was used)
2.1 The tissue sample was cut into small pieces, and ground (50 mg) to powder via liquid nitrogen, and transferred to a 1.5 ml tube free of RNA enzyme (cell sample and other liquid samples required no grinding, and were directly put to the next step).
Using the operational method of Applied Biosystems 7300/7500/7500 Fast Real-Time PCR System and StepOnePlusTMReal-Time PCR System
1. Preparation of a PCR reaction liquid
2. Real Time PCR reaction was performed.
At the end of the reaction, an amplification curve and dissociation curve of Real Time
PCR were confirmed, and 2^−ΔΔct and the like were calculated.

IL-6 = IL-6 content in blood serum of LPS-induced mice (ELISA); format: in vivo, Balb/C mice
Description: 1. A reagent was taken out of a kit and balanced for 30 min at room temperature;
2. standard wells and sample wells were set, and 50 ul standards at different concentrations were respectively added to each standard well.
3. 50 ul sample to be tested (blood sample from each group of mice model constructed in example 9) was first added to the wells of the sample to be tested;
4. 100 ul HRP-labeled detection antibody was respectively added to each standard well and well to be tested;
5. reaction wells were sealed by a microplate membrane for incubation for 60 min at 37° C.;
6. liquid was discarded, water was dried by an absorbent paper, each well was filled with scrubbing solution, standing for 1 min;
7. a culture solution was discarded, water was dried by an absorbent paper, and steps 2-6 were operated repeatedly for 5 times;
8. 50 ul substrate A/B was respectively added to each well for incubation for 15 min at 37° C.;
9. 50 ul stop buffer was added to each well to detect an OD value at 450 nm by an microplate reader within 15 min.

[3] = 2000 mg/kg BW via tail vein in 3 injections, individual mouse

## RVLNGPEAPA [brap]
[1]; [3]
  Death situation/survival animals, 72 h after administering: No death
  Toxic response manifestation: No abnormal
[1]; intravenous injection of 2000 mg/kg BW, mice n=5
  Toxicity in the limit test: no toxicity was found
[1]; male, Konmin, in vivo, 2000 mg/kg BW, intravenous, mouse, judgment rule if survival animals ≥3 (5 of 5 survived)
  LD50 at 9 h: > 2000 mg/kg
[2]; P>0.05, except for the low-dose group
  Content of EB in lung tissues compared with the positive control group (dexamethasone): no significant difference
[2]; low, medium, high dose (0.33, 1.0, 3.0 mM/L), P<0.01, dose-response relationship
  Content of EB in lung tissues compared with the model group: obviously lower than that in the model group
IL-6 mRNA; intranasal administration
  IL-6 mRNA overexpression in lung tissues: obviously decrease the overexpression
IL-6 mRNA; intravenous injection
  IL-6 mRNA overexpression in lung tissues: obviously decrease the overexpression
IL-6; low, medium and high-dose intravenous injection groups, p<0.01
  IL-6 level in serum compared with the model group: dose-response relationship
IL-6; nasal dripping group, at 12 h, P<0.05
  IL-6 level in LPS-induced blood: can decrease
